The values below come from patent US9409893B2, “Heteroaryl derivatives and uses thereof” (Jacobus Pharmaceutical Company, Inc., priority 2012, dated 2016).

One experiment relates to P. falciparum strain D6. Nature of the experiment: [3H]-hypoxanthine growth inhibition assay, P. falciparum D6. It counts as cell-based. The following applies: Plasmodium falciparum. On the procedure: (§1) The potential for antimalarial activity against Plasmodium falciparum was determined by measuring the incorporation of tritiated hypoxanthine into parasitized red blood cells.
(§2) Stock solutions of the test compounds and the reference drug chloroquine (CQ) (Sigma Chemicals C-6628, Lot #059H0919) were prepared in silanized glass vials with AquaSil™ (Pierce, USA) to minimize absorption of the compounds to glassware. All test compounds were dissolved in DMSO (Sigma Cat No. #D8418) to 1 mM concentration, whereas CQ was dissolved in 50% methanol at a concentration of 1.6 mg/ml (base). Stock solutions were stored at −20° C.
(§3) The P. falciparum laboratory adapted strains utilized in this project (Table 1) were in vitro cultured and routinely maintained in RPMI-1640-LPLF complete medium, which contained low concentrations of para-amino benzoic acid (0.0005 mg/L) and folic acid (0.01 mg/L).
(§4) The low concentration of folic acid in RPMI-1640-LPLF prevents inhibition of the compound if its activity targets the parasite's folate metabolic pathway. Parasites were cultured in human red blood cells (RBCs) in vitro at 37° C. in special gas mixture (5% O2, 5% CO2 and 90% N2) as described Trager and Jensen (1979 Science 193:673-675).
(§5) Base cultivation medium consisted of 10.4 g/L RPMI-1640-LPLF powder (Gibco BRL), 5.97 g/L HEPES buffer (MP Biomedicals, USA), 2.0 g/L D-glucose (BDH chemicals, Australia), 0.05 g/L hypoxanthine (Sigma, USA) and 40 mg/L gentamycin (Pfizer, Australia). The pH of the medium was adjusted to 6.9 and the solution was filtered using 0.2 μm pore size (AcroCap, Gelman Science, USA). Complete medium was prepared by adding sodium bicarbonate solution (final concentration, 0.21%) and drug-free heat-inactivated human plasma, pooled from various blood types, obtained from the Australian Red Cross Blood Service (Brisbane) (final concentration, 10%) to the base RPMI-1640-LPLF. For [^3H]-hypoxanthine inhibition growth assay, RPMI-1640-LPLF complete medium which lacked [^3H]-hypoxanthine ([^3H]-RPMI-1640-LPLF) was used to prevent uptake of hypoxanthine by parasites, as radioactive hypoxanthine uptake is measured as a surrogate marker of growth. All complete medium was used within three days of preparation. See DE (Para) SOP 002 for methodology.
(§6) Red blood cells (RBC) were required for P. falciparum parasites to proliferate in vitro. 0 (Rh+) type blood was obtained from the Australian Red Cross Blood Service. The RBC were washed twice in phosphate-buffered saline (PBS) and once in [^3H]-RPMI-1640-LPLF complete medium by centrifugation at 1,500×g for 5 min. Following the final wash, the haematocrit was measured as the percent of RBC to total culture volume. The haematocrit was adjusted to 50% by removing or adding [^3H]-RPMI-LPLF complete medium. See DE (Para) SOP 003 for methodology.
(§7) All P. falciparum strains were grown in RPMI-1640-LPLF complete medium at 4% haematocrit and 1% to 8% parasitaemia at 37° C. in sealed flasks in a gas mixture of 5% O2, 5% CO2 and 90% N2 (BOC Gases, Brisbane, Australia). For drug susceptibility assays cultures were routinely synchronized when the majority of parasites (>85%) were at early trophozoite (ring) stage. Synchronization involved removing the more mature erythrocytic parasite stages by lysis, resulting in the retention only of early trophozoite (ring) stages. Synchronization was performed by re-suspending the infected red blood cell (iRBC) pellet in 5 to 10 times its volume of 5% D-sorbitol (Bacto Laboratories Pty. Ltd., Australia) for 5 min (Lambros and Vanderberg, 1979 J Parasitol 65: 418-420). The mixture was centrifuged (1,500 rpm for 5 min) and the supernatant removed. The iRBC were washed twice using PBS buffer and once using [^3H]-RPMI-LPLF plain medium. Following synchronization, a new culture was prepared with an initial parasitaemia of 1% in RPMI-LPLF complete medium. See DE (Para) SOP 008 for methodology.

In experiment [1] the test system is Plasmodium berghei (KBG-173 strain). Briefly: Plasmodium berghei assay in vivo (modified Thompson Test) in CD-1 mice. The following applies: for Average Days Survival: bid on days 3, 4 and 5, 31 day experiment. How it is done: In vivo antimalarial activity was tested in male or female Charles River CD-1 mice that were 4-5 weeks old and weighed 20-25 g They were housed in groups of 3 or 4 in standard plastic cages with wire tops, Bed-o-Cob® bedding, 12 hr/day of light, and maintained at 75° F. They were fed a standard Ralston Purina mouse chow and the cages and bottles were changed twice a week. Test compounds were ground in a mortar and pestle and diluted with enough vehicle to give a volume of 10 mL/kg of mouse weight. The oral doses were prepared in 0.5% hydroxyethylcellulose (Union Carbide Corp. WP 4400)/0.1% Tween-80 (Fisher Scientific T164-500). The amount of drug was calculated on the free base weight. The mice were infected intraperitoneally on day 0 with 5×10^4 erythrocytes parasitized with Plasmodium berghei (KBG-173 strain) from a donor mouse having a parasitemia between 5-10%. On days 3, 4 and 5 the test compounds were administered bid, spaced 6 hr apart, by oral gavage to the mice. Activity was measured by survival, with full activity defined as all animals living at day 31. Partial activity is defined as days of increased survival versus the infected non-treated controls. This in vivo model is a modification of the Thompson Test. For further description see Ager, A. L, Jr. Rodent Malaria Models. In Handbook of Experimental Pharmacology: Antimalarial Drugs. 1. 68/1; Peters, W., Richards, W. H. G., Eds.: Springer-Verlag: Berlin, 1984, pp. 231-33.

For a further experiment, the system named is P. falciparum strain W2. Nature of the experiment: [3H]-hypoxanthine growth inhibition assay, P. falciparum W2. It is filed as cell-based. The following applies: Plasmodium falciparum. On the procedure: as §1, §2, §3, §4, §5, §6, §7
The mark [2] stands for this setting: Plasmodium berghei, po, 744 h, read-out: Number of mice alive at day 31.
Setting [3] is: P. falciparum D6 (sensitive to chloroquine and pyrimethamine), [3H]-hypoxanthine incorporation, read-out: D6 IC50.
Setting [4] is: P. falciparum W2 (resistant to chloroquine and pyrimethamine), [3H]-hypoxanthine incorporation, read-out: W2 IC50.

Structures are written as SMILES. pIC50: −log10 of the molar value. Counter-ions that a name gives are not always drawn. Like-named read-outs stand apart in the source and are kept apart here. Bounds are passed on as bounds.

Turning to `CCN(CC)CCCC(C)Nc1ccnc2cc(Cl)ccc12` (stereo not drawn) [Chloroquine, chloroquine, reference compound], the negative logarithm of the IC50 (pIC50) (usually −log10 of the IC50, conventionally taken in molar units) with P. falciparum strain D6 (D6, read-out: D6 IC50) is 7.92; in the experiment on P. falciparum strain W2 (W2, read-out: W2 IC50), 6.88. Moreover, the “Average Days Survival” value in experiment [1] (4 mg/kg/day oral) is on record as 10.3 days; in experiment [1] (16 mg/kg/day oral) it was above 18.8 days; in experiment [1] (64 mg/kg/day oral), above 18.6 days; in experiment [1] (128 mg/kg/day oral) it was above 21.3 days. The responders at 4 mg/kg in experiment [1] (setting [2]) came to 0%. The responders at 16 mg/kg in experiment [1] (setting [2]) is 14.3%. The responders at 64 mg/kg in experiment [1] (setting [2]) is 28.6%. Besides, the responders at 128 mg/kg in experiment [1] (setting [2]) was 57.1%.
For the compound `CC(C)(C)NCc1cc(C(C)(C)C)cc(-c2ccc(C(F)(F)F)nn2)c1O` [Example 56, 4-(tert-Butyl)-2-((tert-butylamino)methyl)-6-(6-(trifluoromethyl)pyridazin-3-yl)phenol hydrochloride], the figures for the pIC50 in the experiment on P. falciparum strain D6 (setting [3]) and in the experiment with P. falciparum strain W2 (setting [4]) were 6.98 and 6.93, respectively.
With `CC(C)(C)c1cc(CNCCC(F)(F)F)c(O)c(-c2ccc(C(F)(F)F)nc2)c1` [Example 57, 4-(tert-Butyl)-2-(6-(trifluoromethyl)pyridin-3-yl)-6-(((3,3,3-trifluoropropyl)amino)methyl)phenol hydrochloride], the results for the pIC50 with P. falciparum strain D6 (setting [3]) and with P. falciparum strain W2 (setting [4]) were 7.47 and 7.54, respectively.
In the case of `CCN(CC)CCCC(C)NCc1cc(C(C)(C)C)cc(-c2ccc(C(F)(F)F)nc2)c1O` (stereo not drawn) [Example 59, 4-(tert-Butyl)-2-(((5-(diethylamino)pentan-2-yl)amino)methyl)-6-(6-(trifluoromethyl)pyridin-3-yl)phenol dihydrochloride], the pIC50 was 7.06 with P. falciparum strain D6 (D6, read-out: D6 IC50) and 7.01 with P. falciparum strain W2 (W2, read-out: W2 IC50).
On the same counts, the results for `CC(C)(C)NCCCNCc1cc(C(C)(C)C)cc(-c2ccc(C(F)(F)F)nc2)c1O` [Example 60, 4-(tert-Butyl)-2-(((3-(tert-butylamino)propyl)amino)methyl)-6-(6-(trifluoromethyl)pyridin-3-yl)phenol dihydrochloride] are 6.87 and 6.76.
On to `CCN(CC)CCCNCc1cc(C(C)(C)C)cc(-c2ccc(C(F)(F)F)nc2)c1O` [Example 61, 4-(tert-Butyl)-2-(((3-(diethylamino)propyl)amino)methyl)-6-(6-(trifluoromethyl)pyridin-3-yl)phenol dihydrochloride], for which the pIC50 is 7.36 in the experiment on P. falciparum strain D6 (D6, read-out: D6 IC50) and 7.49 in the experiment with P. falciparum strain W2 (W2, read-out: W2 IC50).
For the compound `CC(C)(C)c1cc(CNCCCN)c(O)c(-c2ccc(C(F)(F)F)nc2)c1` [Example 62, 2-(((3-Aminopropyl)amino)methyl)-4-(tert-butyl)-6-(6-(trifluoromethyl)pyridin-3-yl)phenol dihydrochloride], the pIC50 is 6.88 in the experiment with P. falciparum strain D6 (D6, read-out: D6 IC50) and 6.65 in the experiment with P. falciparum strain W2 (W2, read-out: W2 IC50).
In the case of `CCN(CC)CCNCc1cc(C(C)(C)C)cc(-c2ccc(C(F)(F)F)nc2)c1O` [Example 63, 4-(tert-Butyl)-2-(((2-(diethylamino)ethyl)amino)methyl)-6-(6-(trifluoromethyl)pyridin-3-yl)phenol dihydrochloride], the pIC50 with P. falciparum strain D6 (D6, read-out: D6 IC50) was 8.05; in the experiment on P. falciparum strain W2 (W2, read-out: W2 IC50) it was 8.15.
In the case of `CC(C)(C)c1cc(CN)c(O)c(-c2ccc(C(F)(F)F)nc2)c1` [Example 64, 2-(Aminomethyl)-4-(tert-butyl)-6-(6-(trifluoromethyl)pyridin-3-yl)phenol hydrochloride], the figures for the pIC50 in the experiment with P. falciparum strain D6 (setting [3]) and with P. falciparum strain W2 (setting [4]) were 6.67 and 6.69, respectively.
Consider `CC(CN)NCc1cc(C(C)(C)C)cc(-c2ccc(C(F)(F)F)nc2)c1O` (stereo not drawn) [Example 65, 2-(((1-Aminopropan-2-yl)amino)methyl)-4-(tert-butyl)-6-(6-(trifluoromethyl)pyridin-3-yl)phenol dihydrochloride], for which the pIC50 was 6.40 with P. falciparum strain D6 (D6, read-out: D6 IC50) and 6.68 in the experiment with P. falciparum strain W2 (W2, read-out: W2 IC50).
Turning to `CC(C)(C)NCc1cc(-c2cccc(F)c2)cc(-c2ccc(C(F)(F)F)nc2)c1O` [Example 67, 3-((tert-Butylamino)methyl)-3′-fluoro-5-(6-(trifluoromethyl)pyridin-3-yl)-[1,1′-biphenyl]-4-ol hydrochloride], the pIC50 with P. falciparum strain D6 (setting [3]) was 7.00; with P. falciparum strain W2 (setting [4]) it was 7.28.
Take `CC(C)(C)NCc1cc(F)cc(-c2ccc(C(F)(F)F)nc2)c1O` [Example 68, 2-((tert-Butylamino)methyl)-4-fluoro-6-(6-(trifluoromethyl)pyridin-3-yl)phenol hydrochloride]: the pIC50 in the experiment with P. falciparum strain D6 (setting [3]) is 6.66; in the experiment on P. falciparum strain W2 (setting [4]), 6.90.
For the compound `CC(C)(C)NCc1cc(Cl)cc(-c2ccc(C(F)(F)F)nc2)c1O` [Example 69, 2-((tert-Butylamino)methyl)-4-chloro-6-(6-(trifluoromethyl)pyridin-3-yl)phenol hydrochloride], the values for the pIC50 with P. falciparum strain D6 (setting [3]) and in the experiment with P. falciparum strain W2 (setting [4]) were 6.62 and 6.89, respectively.
In the case of `CC(C)(C)NCc1cc(C#N)cc(-c2ccc(C(F)(F)F)nc2)c1O` [Example 71, 3-((tert-Butylamino)methyl)-4-hydroxy-5-(6-(trifluoromethyl)pyridin-3-yl)benzonitrile hydrochloride], the pIC50 in the experiment with P. falciparum strain D6 (setting [3]) is 4.03; in the experiment on P. falciparum strain W2 (setting [4]), 4.30.
With `CC(C)(C)NCc1cc(S(C)(=O)=O)cc(-c2ccc(C(F)(F)F)nc2)c1O` [Example 72, 2-((tert-Butylamino)methyl)-4-(methylsulfonyl)-6-(6-(trifluoromethyl)pyridin-3-yl)phenol hydrochloride], the pIC50 with P. falciparum strain D6 (setting [3]) is 3.90; in the experiment on P. falciparum strain W2 (setting [4]) it was 4.09.
On to `CC(NC(C)(C)C)c1cc(C(C)(C)C)cc(-c2ccc(C(F)(F)F)nc2)c1O` (stereo not drawn) [Example 73, 4-(tert-Butyl)-2-(1-(tert-butylamino)ethyl)-6-(6-(trifluoromethyl)pyridin-3-yl)phenol hydrochloride], for which the negative-log IC50 (pIC50) with P. falciparum strain D6 (setting [3]) was 5.73; with P. falciparum strain W2 (setting [4]) it was 5.56.
In the case of `CC(C)(C)NCc1cc(-c2ccc(Cl)cc2)nc(-c2ccc(C(F)(F)F)nc2)c1O` [Example 74, 4-((tert-Butylamino)methyl)-6-(4-chlorophenyl)-6′-(trifluoromethyl)-[2,3′-bipyridin]-3-ol 1.1hydrochloride], the pIC50 with P. falciparum strain D6 (setting [3]) was 7.27; in the experiment on P. falciparum strain W2 (setting [4]) it was 7.64.
